Measured values from patent publication US8222230B2, “Pharmaceutical compositions with superior product performance and patient compliance” (Hoffmann-La Roche Inc., priority 2009, dated 2012).

Legend:
[1] = pH solubility profile of compound 1 at room temperature (FIG. 1); format: physicochemical; conditions: pH>4, FIG. 1
Source text: (§1) Compound 1 is being evaluated in the clinic for the treatment of liver infection caused by hepatitis C virus. The estimated daily dose is 1 g-2 g requiring high drug loading in the drug product to provide the best treatment regimen for the patients. […] The high dose and need for an immediate release profile are further complicated by the low bulk density of the drug substance (0.04 to 0.3 g/cc). The conventional manufacturing technologies employing commonly used excipients require the use of multiple densification steps as well as high amounts of excipients such as binders. In addition to the multi-step manufacturing process, the high usage of binder has a negative impact on the dissolution of the product resulting in lower bioavailability.
FIG. 1 provides a graph illustrating the pH solubility profile of compound 1 at room temperature.

pKa of compound 1 = format: physicochemical; conditions: weak base
Source text: as §1

- drug solubility vs pH [1]: drops precipitously
- pKa (pKa of compound 1): 3.5
SMILES: CC(C)C(=O)OC[C@H]1O[C@@H](n2ccc(N)nc2=O)[C@](C)(F)[C@@H]1OC(=O)C(C)C [Compound 1, Isobutyric acid (2R,3R,4R,5R)-5-(4-amino-2-oxo-2H-pyrimidin-1-yl)-4-fluoro-2-isobutyryloxymethyl-4-methyl-tetrahydro-furan-3-yl ester]
